Tests used:
Assay in all cases: relative viability (nuclei count vs DMSO), 5 days (fraction); higher = more cells survive
[1] = tested on: ABC-1
How it was run: (§1)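 Cells from lung cancer lines were seeded into 1536-well plates and, one day later, dosed by pin tool. Treatments were either a single drug or a fixed dose of an anchor drug with five library-drug doses (not always all listed) in √10 steps. After 5 days, nuclei were stained in a one-step fixation (final 0.05% Triton X-100, 1% formaldehyde, 1 ug/ml Hoechst) and counted on 4× images, and relative viability is the treated-to-vehicle nuclei ratio, as the median of duplicate plates.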

[2] = tested on: LC-2-ad
How it was run: as §1

[3] = tested on: NCI-H1734
How it was run: as §1

[4] = tested on: ChaGo-K-1
How it was run: as §1

[5] = tested on: NCI-H1944
How it was run: as §1

[6] = tested on: NCI-H2126
How it was run: as §1

[7] = tested on: HCC-78
How it was run: as §1

[8] = tested on: HCC-15
How it was run: as §1

[9] = tested on: HARA
How it was run: as §1

[10] = tested on: NCI-H2405
How it was run: as §1

[11] = tested on: NCI-H1793
How it was run: as §1

[12] = tested on: UMC-11
How it was run: as §1

[13] = tested on: NCI-H2023
How it was run: as §1

[14] = tested on: NCI-H23
How it was run: as §1

[15] = tested on: NCI-H838
How it was run: as §1

[16] = tested on: A-427
How it was run: as §1

[17] = tested on: NCI-H2228
How it was run: as §1

[18] = tested on: NCI-H2009
How it was run: as §1

[19] = tested on: HCC-366
How it was run: as §1

[20] = tested on: EMC-BAC-2
How it was run: as §1

[21] = tested on: NCI-H1993
How it was run: as §1

[22] = tested on: SK-LU-1
How it was run: as §1

[23] = tested on: COR-L23
How it was run: as §1

For `CC1(C)CCC(c2ccc(Cl)cc2)=C(CN2CCN(c3ccc(C(=O)NS(=O)(=O)c4ccc(N[C@H](CCN5CCOCC5)CSc5ccccc5)c(S(=O)(=O)C(F)(F)F)c4)cc3)CC2)C1` [Navitoclax] + N=C(N)NC(=N)NCCc1ccccc1 [Phenformin] (partner 250 µM), the relative viability ([1]; first compound 0.005 µM) was 0.245, the relative viability ([1]; first compound 0.01581 µM) was 0.292 and the relative viability ([1]; first compound 0.05 µM) was 0.277. It also gave a relative viability ([1]; first compound 0.1581 µM) of 0.257, a relative viability ([1]; first compound 0.5 µM) of 0.215 and a relative viability ([2]; first compound 0.005 µM) of 0.577. For the same compound, the relative viability ([2]; first compound 0.01581 µM) was 0.653, the relative viability ([2]; first compound 0.05 µM) was 0.58 and the relative viability ([2]; first compound 0.1581 µM) was 0.505. For the same compound, the relative viability ([2]; first compound 0.5 µM) was 0.572, the relative viability ([3]; first compound 0.005 µM) was 0.367 and the relative viability ([3]; first compound 0.01581 µM) was 0.461. The relative viability ([3]; first compound 0.1581 µM) was 0.371, the relative viability ([3]; first compound 0.5 µM) was 0.341 and the relative viability ([4]; first compound 0.005 µM) was 0.459. For the same compound, the relative viability ([4]; first compound 0.01581 µM) was 0.502, the relative viability ([4]; first compound 0.05 µM) was 0.397 and the relative viability ([4]; first compound 0.1581 µM) was 0.48. For the same compound, the relative viability ([4]; first compound 0.5 µM) was 0.501, the relative viability ([5]; first compound 0.005 µM) was 0.183 and the relative viability ([5]; first compound 0.01581 µM) was 0.191. The relative viability ([5]; first compound 0.05 µM) was 0.182, the relative viability ([5]; first compound 0.1581 µM) was 0.211 and the relative viability ([5]; first compound 0.5 µM) was 0.146. For the same compound, the relative viability ([6]; first compound 0.005 µM) was 0.527, the relative viability ([6]; first compound 0.01581 µM) was 0.53 and the relative viability ([6]; first compound 0.05 µM) was 0.45. It also gave a relative viability ([6]; first compound 0.1581 µM) of 0.42, a relative viability ([6]; first compound 0.5 µM) of 0.444 and a relative viability ([7]; first compound 0.005 µM) of 0.727. For the same compound, the relative viability ([7]; first compound 0.01581 µM) was 0.692, the relative viability ([7]; first compound 0.1581 µM) was 0.645 and the relative viability ([7]; first compound 0.5 µM) was 0.75. The relative viability ([8]; first compound 0.005 µM) was 0.453, the relative viability ([8]; first compound 0.01581 µM) was 0.488 and the relative viability ([8]; first compound 0.05 µM) was 0.406. It also gave a relative viability ([8]; first compound 0.1581 µM) of 0.483, a relative viability ([8]; first compound 0.5 µM) of 0.422 and a relative viability ([9]; first compound 0.005 µM) of 0.491. For the same compound, the relative viability ([9]; first compound 0.01581 µM) was 0.554, the relative viability ([9]; first compound 0.1581 µM) was 0.415 and the relative viability ([9]; first compound 0.5 µM) was 0.477. The relative viability ([10]; first compound 0.005 µM) was 0.413, the relative viability ([10]; first compound 0.01581 µM) was 0.44 and the relative viability ([10]; first compound 0.05 µM) was 0.376. For the same compound, the relative viability ([10]; first compound 0.1581 µM) was 0.4, the relative viability ([10]; first compound 0.5 µM) was 0.303 and the relative viability ([11]; first compound 0.005 µM) was 0.527. The relative viability ([11]; first compound 0.01581 µM) was 0.445, the relative viability ([11]; first compound 0.1581 µM) was 0.309 and the relative viability ([11]; first compound 0.5 µM) was 0.313. It also gave a relative viability ([12]; first compound 0.005 µM) of 0.303, a relative viability ([12]; first compound 0.01581 µM) of 0.323 and a relative viability ([12]; first compound 0.05 µM) of 0.35. It also gave a relative viability ([12]; first compound 0.1581 µM) of 0.242, a relative viability ([12]; first compound 0.5 µM) of 0.273 and a relative viability ([13]; first compound 0.005 µM) of 0.432. For the same compound, the relative viability ([13]; first compound 0.01581 µM) was 0.447, the relative viability ([13]; first compound 0.05 µM) was 0.382 and the relative viability ([13]; first compound 0.1581 µM) was 0.425. It also gave a relative viability ([13]; first compound 0.5 µM) of 0.428, a relative viability ([14]; first compound 0.005 µM) of 0.759 and a relative viability ([14]; first compound 0.01581 µM) of 0.818. For the same compound, the relative viability ([14]; first compound 0.05 µM) was 0.662, the relative viability ([14]; first compound 0.1581 µM) was 0.783 and the relative viability ([14]; first compound 0.5 µM) was 0.799. For the same compound, the relative viability ([15]; first compound 0.005 µM) was 0.529, the relative viability ([15]; first compound 0.01581 µM) was 0.735 and the relative viability ([15]; first compound 0.05 µM) was 0.757. The relative viability ([15]; first compound 0.1581 µM) was 0.749, the relative viability ([15]; first compound 0.5 µM) was 0.664 and the relative viability ([16]; first compound 0.005 µM) was 0.342. The relative viability ([16]; first compound 0.01581 µM) was 0.359, the relative viability ([16]; first compound 0.05 µM) was 0.179 and the relative viability ([16]; first compound 0.1581 µM) was 0.287. For the same compound, the relative viability ([16]; first compound 0.5 µM) was 0.273, the relative viability ([17]; first compound 0.005 µM) was 0.35 and the relative viability ([17]; first compound 0.01581 µM) was 0.385. For the same compound, the relative viability ([17]; first compound 0.1581 µM) was 0.276, the relative viability ([17]; first compound 0.5 µM) was 0.418 and the relative viability ([18]; first compound 0.005 µM) was 0.495. It also gave a relative viability ([18]; first compound 0.01581 µM) of 0.519, a relative viability ([18]; first compound 0.05 µM) of 0.435 and a relative viability ([18]; first compound 0.1581 µM) of 0.47. The relative viability ([18]; first compound 0.5 µM) was 0.484, the relative viability ([19]; first compound 0.005 µM) was 0.708 and the relative viability ([19]; first compound 0.01581 µM) was 0.616. The relative viability ([19]; first compound 0.1581 µM) was 0.619, the relative viability ([19]; first compound 0.5 µM) was 0.588 and the relative viability ([20]; first compound 0.005 µM) was 0.496. For the same compound, the relative viability ([20]; first compound 0.01581 µM) was 0.604, the relative viability ([20]; first compound 0.05 µM) was 0.523 and the relative viability ([20]; first compound 0.1581 µM) was 0.498. The relative viability ([20]; first compound 0.5 µM) was 0.489, the relative viability ([21]; first compound 0.005 µM) was 0.545 and the relative viability ([21]; first compound 0.01581 µM) was 0.498. For the same compound, the relative viability ([21]; first compound 0.05 µM) was 0.629, the relative viability ([21]; first compound 0.1581 µM) was 0.587 and the relative viability ([21]; first compound 0.5 µM) was 0.616. For the same compound, the relative viability ([22]; first compound 0.005 µM) was 0.552, the relative viability ([22]; first compound 0.01581 µM) was 0.608 and the relative viability ([22]; first compound 0.05 µM) was 0.501. The relative viability ([22]; first compound 0.1581 µM) was 0.463, the relative viability ([22]; first compound 0.5 µM) was 0.513 and the relative viability ([23]; first compound 0.005 µM) was 0.409. It also gave a relative viability ([23]; first compound 0.01581 µM) of 0.494, a relative viability ([23]; first compound 0.05 µM) of 0.516 and a relative viability ([23]; first compound 0.1581 µM) of 0.438. It also gave a relative viability ([23]; first compound 0.5 µM) of 0.447.
